From patent US10004761B2, “Malodor neutralizing composition” (priority 2016, dated 2018) come the findings set out here.

Assay [1] has as its system chondroitinase ABC. Put plainly: HA gelation consistency (Method III) in the presence of Chondroitinase ABC. The format is biochemical, Proteus vulgaris. As to conditions: Table 4: NAC 400 mg dry powder (20% final), HA 2 cc of 1%, Chondroitinase ABC 50 μL, 37° C.; cell wraps: Viscous liquid. On the procedure:
(§1) Method III (Viscosity of HA): HA at low concentrations (e.g., 1%) in aqueous solution forms a viscous colloidal hydrogel solution, which yields semi-solid gel particles at room temperature and a solid gel at 4° C.
(§2) HA degradation was evaluated using Method III, as described hereinabove.
(§3) HA state of gelation was studied in the presence of NAC and various HA-degrading enzymes, using the following Stock solutions:
(§4) The tested enzyme (50 μL) was placed in a tube, NAC (50 μL of the Stock solution, final concentration of about 3.3%) was added and the mixture was incubated for 2 hours at room temperature (23° C.). Then, 2 ml of HA 1% were added to each tube and tubes were further incubated at room temperature for additional 24 hours.
(§5) In a second set of experiments, NAC (50 μL of the Stock solution) was added to a tube containing 2 ml of HA 1%; and the tubes were incubated for 2 hours at room temperature. Then, the HA-degrading enzyme was added and tubes were incubated at room temperature for additional 24 hours. In control tubes 9 and 10 (containing only HA), 50 μL of water were added to achieve the same volume as the other tested tubes.
In another set of experiments, the effect of NAC powder, (at a final concentration of 20%), on HA gelation in the presence of Hyase or Chondroitinase ABC was tested. […]

The subject of assay [2] is hyaluronidase Type IV-S, from bovine testes (Hyase). Put plainly: HA gelation consistency (Method III) in the presence of Hyase. The format is biochemical. The settings on record: for Consistency after 24 h incubation at 37° C.: HA 1% 2 mL. The protocol: as §1, §2, §3, §4, §5
In another set of experiments, the effect of NAC powder, (at a final concentration of 20%), on HA gelation in the presence of Hyase or Chondroitinase ABC was tested. HA (2 ml of 1%), and the tested enzyme were incubated with and without 400 mg of NAC powder, at 4° C. and at 37° C.
HA gelation in the presence of various concentrations of NAC and/or various concentrations of Hyase was further studies. […] The solutions were maintained for 24 hours at room temperature, and thereafter Hyase, at various concentrations, was added. Then the mixtures were incubated at room temperature. The enzyme was absent in the control tubes.
In another set of experiments, the effect of various NAC concentrations on gelation of HA 1% (2 mL in each tube) in the presence of Hyase (50 μL of Stock solution) following incubation at 37° C., was tested, using the same procedure as described hereinabove.

The test system is the same in assay [3]. Put plainly: Dische's assay (Method II) of HA degradation by Hyase with inhibitors. The format is biochemical. The protocol:
Method II (Dische's assay; detection of uronic acid residues): Assays were performed by following the procedures described in Dische Z. [J. Biol. Chem., 1947, 167, p. 189-198] and Dische and Rothschild [Anal Biochem., 1967, 21(1), p. 125-30]. In these assays, molecules containing the uronic acid residues found in the precipitate formed upon CPC additions, are re-solubilized and products formed by -sulfuric acid hydrolysis of these fragments are detected by a spectrophotometric assay employing carbazole chromagen reagent. In addition, small residues degraded off the HA chains that have not precipitated with the addition of CPC, can be detected by the carbazole assay performed on the solution, so as to detect all of the uronic acid content.
Evaluation of HA degradation by this method was generally performed as follows:
20 μL of a NAC stock solution, and 20 μL of the stock solutions of the other inhibitors were used in the assay.
200 μL of the HA stock solution were placed in each tube, for achieving a 1 mg HA per tube.
Twenty (20) μL of hyase and 20 μL of NAC were combined and incubated for 2 hours. Then 200 μL of HA (1 mg) were added to each tube and the mixture was incubated at room temperature for 24 hours. Thereafter, the tubes were heated for 2 minutes in boiling water bath and 8 mL of doubled distilled water were added to the tubes as preparation for the Dische's assay.
As per Dische's Assay, 100 μL of 3N NaCl and 0.5 mL of 10% CPC (cetylpyridinium chloride) were thereafter added to each tube and the mixture was incubated at 37° C. until flocculation-turbidity (resulting from precipitation of HA+CPC) could be observed. The mixture was centrifuged for 10 minutes at 10,000 g at room temperature, and the supernatant was thereafter separated from the obtained pellet.
The pellet was dissolved in 1 ml of CaCl2, and the obtained solution was incubated at 37° C. until complete dissolution of the pellet is obtained. A 2:1 v/v ethanol/ether mixture (8 ml) was thereafter added, and the mixture was intensively stirred (by vortex) and kept at −20° C. overnight. The obtained pellet was collected following a centrifugation for 10 minutes at 10,000 g. Then, distilled water (1 mL) was added to solubilize the pellet, followed by addition of 0.2 ml Carbazole 1%. The mixture was stirred thoroughly, and concentrated sulfuric acid (6 mL) was thereafter added.
The samples were transferred into tight closed tubes, placed for 10 minutes in a boiling water bath, and was thereafter cooled in ice until it reached room temperature.
The pink-violet color developed by the chromogen was measured using a spectrophotometer at 527 nm.
Ditch assay, as described hereinabove (Method II) was performed while using the following Hyase inhibitors:
The experiment was run at room temperature (23° C.). Hyase and Inhibitors were incubated first for 2 hours prior to the addition of HA. Blank tubes included no substrate (HA) and Control tubes included no enzyme, no inhibitor and HA (200 μL). Tubes 5 and 6 contained HA and Hyase with no inhibitor. Standard Solutions with no enzyme and no inhibitor and HA 50 μL and 10 μL were also tested, for calibration. % HA cleaved denotes the weight percent of HA that was degraded. % HA residue denotes the weight percent of non-degraded HA, and represents the % of Hyase inhibition.

Regarding `CC(=O)N[C@@H](CS)C(=O)O` [NAC, N-acetyl L-cysteine], the Consistency result in assay [1] was “Viscous”; in assay [2] (Table 2: Hyase 50 μL + NAC 50 μL (400 mM stock, about 3.3%) 2 h at 23° C., then HA 1% 2 mL, 24 h room temperature), “Solid (for a solid the results were in the range of 80-100 Pa S and higher)”; in assay [2] (Table 3: NAC 50 μL added to HA 1% 2 mL first (0.5% NAC final), 2 h, then Hyase 50 μL, 24 h room temperature) it was “Fluid Liquid”; in assay [2] (Table 4: NAC 400 mg dry powder (20% final), HA 2 cc of 1%, Hyase 50 μL, 4° C.), “Semisolid (for a semi-solid in the range of 50-70 Pa S)”; in assay [2] (Table 4: NAC 400 mg dry powder (20% final), HA 2 cc of 1%, Hyase 50 μL, 37° C., cell wraps: Viscous liquid), “Viscous”; in assay [2] (Table 5: NAC 5% (2 mL), HA 40 mg dry powder, Hyase 50 μL, room temperature, cell wraps: Solid, no crystals), “Solid, no”. Besides, the Consistency result in assay [2] (Table 5: NAC 10% (2 mL), HA 40 mg dry powder, Hyase 50 μL, room temperature, cell wraps: Solid, no crystals) is reported as “Solid, no”. Besides, the “NAC concentration that fails to inhibit HA degradation” value in assay [2] (HA 1%, Hyase 50 μL, 37° C. 24 h) was “lower than 1%”. The “NAC concentration range with the best effect” value in assay [2] (HA 1%, Hyase 50 μL, at 37° C.) was 4-16%. Further, the “Consistency after 24 h incubation at 37° C.” value was “Fluid liquid (for a fluid liquid were in the range of 1-500 mPa S)” in assay [2] (NAC 0.25% (5 mg), Hyase 50 μL); “Fluid liquid (for a fluid liquid were in the range of 1-500 mPa S)” in assay [2] (NAC 0.5% (10 mg), Hyase 50 μL); “Viscous liquid (for a viscous liquid in the range of 1-10 Pa S)” in assay [2] (NAC 1.0% (20 mg), Hyase 50 μL); “Viscous liquid (for a viscous liquid in the range of 1-10 Pa S)” in assay [2] (NAC 2.0% (40 mg), Hyase 50 μL); “Semisolid (for a semi-solid in the range of 50-70 Pa S)” in assay [2] (NAC 4.0% (80 mg), Hyase 50 μL); “Semisolid (for a semi-solid in the range of 50-70 Pa S)” in assay [2] (NAC 8% (160 mg), Hyase 50 μL). For the same compound, the “Consistency after 24 h incubation at 37° C.” value in assay [2] (NAC 10% (200 mg), Hyase 50 μL) was “Semisolid (for a semi-solid in the range of 50-70 Pa S)”; in assay [2] (NAC 20% (400 mg), Hyase 50 μL) it was “Fluid liquid (for a fluid liquid were in the range of 1-500 mPa S)”. For the same compound, the “% HA degraded” value in assay [3] (20 μL inhibitor stock incubated 2 h with 20 μL Hyase, then HA 200 μL, room temperature 24 h) is recorded as 0%. Besides, in assay [3] (NAC final concentration of the incubate 2%, Tubes 11-12), the “inhibition of HA degradation” value is reported as “completely inhibited HA degradation”. The “% of inhibition of HA degradation” value in assay [3] (derived from Table 1) stood at 100%. Further, the “% HA intact (precipitated)” value in assay [3] (represents % of Hyase inhibition, 20 μL inhibitor, 20 μL Hyase, HA 200 μL, room temperature 24 h) stood at 100%.
